Assay results taken from the supplement of paper PMC11208160.

experiment: recombinant UMI read abundance after kanamycin selection (control-corrected) (log10(CPM+1)); higher = more efficient recombination; extreme values may be limits of the assay; sequences stand for … in AGTGCAGAGAAAATCGGCCAGTTTTCTCTGCCTGCAGTCCGCATGCCGTGGGACCCCTTGGGTTCTAACCTGTTGCCTAGATTTATGCAGCGGACTGCCTTTCTCCCAAAGTGATAAACCGG…AGGTTGGTTTCACT; site = the 11-nt donor
In short: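 Sequencing read counts were converted to CPM, averaged over two replicates and scaled by control-derived factors. Results are given as log10(CPM+1). The reads covered the donor–target junction of recombinant UMIs from a pooled Escherichia coli screen of donor and donor-binding-loop pairs for the IS621 bridge recombinase.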
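Note: IS621 bridge recombinase in Escherichia coli cells against a fixed T5 target plasmid.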

“CCTAAGACATGGACCGGTTTTCCCGGTAATCCGTATTTGGC (site CCTAACACTGC)” and “CCTAAGACATGGACCGGTTTTCCCGGTAATCCGTATTTGGC (site CCTAAGACTGC)” are the same in “recombinant UMI read abundance (log10)” value: 0 for the first, 0 for the second.

“CCTAAGACATGGACCGGTTTTCCCGGTAATCCGTATTTGGC (site CCTAATACTGC)” and “CCTAAGGCATGGACCGGTTTTCCCGGTAATCCGTATTTGAT (site CCTAAAGCTAT)” are the same in “recombinant UMI read abundance (log10)” value: 0 for the first, 0 for the second.

“CCTAAGGCATGGACCGGTTTTCCCGGTAATCCGTATTTGAT (site CCTAACGCTAT)” and “CCTAAGGCATGGACCGGTTTTCCCGGTAATCCGTATTTGAT (site CCTAAGGCTAT)” are within 0.2 log units of each other in “recombinant UMI read abundance (log10)” value: 0.00671 for the first, 0.0186 for the second.

“CCTAAGGCATGGACCGGTTTTCCCGGTAATCCGTATTTGAT (site CCTAATGCTAT)” and “CCTAATACATGGACCGGTTTTCCCGGTAATCCGTATTTGGC (site ACTAATACTGC)” are the same in “recombinant UMI read abundance (log10)” value: 0 for the first, 0 for the second.

“CCTAATACATGGACCGGTTTTCCCGGTAATCCGTATTTGGC (site CATAATACTGC)” and “CCTAATACATGGACCGGTTTTCCCGGTAATCCGTATTTGGC (site CCAAATACTGC)” are the same in “recombinant UMI read abundance (log10)” value: 0 for the first, 0 for the second.

“CCTAATACATGGACCGGTTTTCCCGGTAATCCGTATTTGGC (site CCCAATACTGC)” and “CCTAATACATGGACCGGTTTTCCCGGTAATCCGTATTTGGC (site CCGAATACTGC)” are the same in “recombinant UMI read abundance (log10)” value: 0 for the first, 0 for the second.

“CCTAATACATGGACCGGTTTTCCCGGTAATCCGTATTTGGC (site CCTAAAACTGC)” and “CCTAATACATGGACCGGTTTTCCCGGTAATCCGTATTTGGC (site CCTAACACTGC)” are within 0.2 log units of each other in “recombinant UMI read abundance (log10)” value: 0.00801 for the first, 0 for the second.

“CCTAATACATGGACCGGTTTTCCCGGTAATCCGTATTTGGC (site CCTAAGACTGC)” and “CCTAATACATGGACCGGTTTTCCCGGTAATCCGTATTTGGC (site CCTAATACTAC)” are within 0.2 log units of each other in “recombinant UMI read abundance (log10)” value: 0 for the first, 0.0181 for the second.

“CCTAATACATGGACCGGTTTTCCCGGTAATCCGTATTTGGC (site CCTAATACTCC)” and “CCTAATACATGGACCGGTTTTCCCGGTAATCCGTATTTGGC (site CCTAATACTGA)” are within 0.2 log units of each other in “recombinant UMI read abundance (log10)” value: 0.00819 for the first, 0.0391 for the second.

“CCTAATACATGGACCGGTTTTCCCGGTAATCCGTATTTGGC (site CCTAATACTGC)” and “CCTAATACATGGACCGGTTTTCCCGGTAATCCGTATTTGGC (site CCTAATACTGG)” are the same in “recombinant UMI read abundance (log10)” value: 0 for the first, 0 for the second.

“CCTAATACATGGACCGGTTTTCCCGGTAATCCGTATTTGGC (site CCTAATACTGT)” and “CCTAATACATGGACCGGTTTTCCCGGTAATCCGTATTTGGC (site CCTAATACTTC)” are within 0.2 log units of each other in “recombinant UMI read abundance (log10)” value: 0 for the first, 0.00574 for the second.

“CCTAATACATGGACCGGTTTTCCCGGTAATCCGTATTTGGC (site CCTAATCCTGC)” and “CCTAATACATGGACCGGTTTTCCCGGTAATCCGTATTTGGC (site CCTAATGCTGC)” are within 0.2 log units of each other in “recombinant UMI read abundance (log10)” value: 0.00798 for the first, 0 for the second.

“CCTAATACATGGACCGGTTTTCCCGGTAATCCGTATTTGGC (site CCTAATTCTGC)” and “CCTAATACATGGACCGGTTTTCCCGGTAATCCGTATTTGGC (site CCTACTACTGC)” are within 0.2 log units of each other in “recombinant UMI read abundance (log10)” value: 0 for the first, 0.0125 for the second.

“CCTAATACATGGACCGGTTTTCCCGGTAATCCGTATTTGGC (site CCTAGTACTGC)” and “CCTAATACATGGACCGGTTTTCCCGGTAATCCGTATTTGGC (site CCTATTACTGC)” are the same in “recombinant UMI read abundance (log10)” value: 0 for the first, 0 for the second.

“CCTAATACATGGACCGGTTTTCCCGGTAATCCGTATTTGGC (site CCTCATACTGC)” and “CCTAATACATGGACCGGTTTTCCCGGTAATCCGTATTTGGC (site CCTGATACTGC)” are within 0.2 log units of each other in “recombinant UMI read abundance (log10)” value: 0 for the first, 0.00582 for the second.

“CCTAATACATGGACCGGTTTTCCCGGTAATCCGTATTTGGC (site CCTTATACTGC)” and “CCTAATACATGGACCGGTTTTCCCGGTAATCCGTATTTGGC (site CGTAATACTGC)” are the same in “recombinant UMI read abundance (log10)” value: 0 for the first, 0 for the second.

“CCTAATACATGGACCGGTTTTCCCGGTAATCCGTATTTGGC (site CTTAATACTGC)” and “CCTAATACATGGACCGGTTTTCCCGGTAATCCGTATTTGGC (site GCTAATACTGC)” are the same in “recombinant UMI read abundance (log10)” value: 0 for the first, 0 for the second.

“CCTAATACATGGACCGGTTTTCCCGGTAATCCGTATTTGGC (site TCTAATACTGC)” and “CCTAATTCATGGACCGGTTTTCCCGGTAATCCGTATTTGAT (site CCTAATTCTAT)” are the same in “recombinant UMI read abundance (log10)” value: 0 for the first, 0 for the second.

“CCTACAGCATGGACCGGTTTTCCCGGTAATCCGTATTTGAT (site CCTAAAGCTAT)” and “CCTACAGCATGGACCGGTTTTCCCGGTAATCCGTATTTGAT (site CCTACAGCTAT)” are within 0.2 log units of each other in “recombinant UMI read abundance (log10)” value: 0 for the first, 0.00631 for the second.

“CCTACAGCATGGACCGGTTTTCCCGGTAATCCGTATTTGAT (site CCTAGAGCTAT)” and “CCTACAGCATGGACCGGTTTTCCCGGTAATCCGTATTTGAT (site CCTATAGCTAT)” are within 0.2 log units of each other in “recombinant UMI read abundance (log10)” value: 0 for the first, 0.002 for the second.

“CCTAGAGCATGGACCGGTTTTCCCGGTAATCCGTATTTGAT (site CCTAAAGCTAT)” and “CCTAGAGCATGGACCGGTTTTCCCGGTAATCCGTATTTGAT (site CCTACAGCTAT)” are within 0.2 log units of each other in “recombinant UMI read abundance (log10)” value: 0 for the first, 0.00404 for the second.

“CCTAGAGCATGGACCGGTTTTCCCGGTAATCCGTATTTGAT (site CCTAGAGCTAT)” and “CCTAGAGCATGGACCGGTTTTCCCGGTAATCCGTATTTGAT (site CCTATAGCTAT)” are within 0.2 log units of each other in “recombinant UMI read abundance (log10)” value: 0.00624 for the first, 0 for the second.

Going from “CCTAGCACATGGACCGGTTTTCCCGGTAATCCGTATTTGGT (site CCTAGCACTAC)” to “CCTAGGTCATGGACCGGTTTTCCCGGTAATCCGTATTTGAA (site CCTAGGTCTTT)”, the “recombinant UMI read abundance (log10)” value rises from 0.00677 to 0.213.

“CCTAGTACATGGACCGGTTTTCCCGGTAATCCGTATTTGGC (site CCTAATACTGC)” and “CCTAGTACATGGACCGGTTTTCCCGGTAATCCGTATTTGGC (site CCTACTACTGC)” are the same in “recombinant UMI read abundance (log10)” value: 0 for the first, 0 for the second.

“CCTAGTACATGGACCGGTTTTCCCGGTAATCCGTATTTGGC (site CCTAGTACTGC)” and “CCTAGTACATGGACCGGTTTTCCCGGTAATCCGTATTTGGC (site CCTATTACTGC)” are the same in “recombinant UMI read abundance (log10)” value: 0 for the first, 0 for the second.

“CCTAGTTCATGGACCGGTTTTCCCGGTAATCCGTATTTGAA (site CCTAGTTCTTT)” and “CCTATGTCATGGACCGGTTTTCCCGGTAATCCGTATTTGTC (site CCTATGTCTGA)” are the same in “recombinant UMI read abundance (log10)” value: 0 for the first, 0 for the second.

Going from “CCTCACTCATGGACCGGTTTTCCCGGTAATCCGTATTTGCA (site CCTCACTCTTG)” to “CCTCATACATGGACCGGTTTTCCCGGTAATCCGTATTTGGC (site CCTAATACTGC)”, the “recombinant UMI read abundance (log10)” value falls from 0.399 to 0.

“CCTCATACATGGACCGGTTTTCCCGGTAATCCGTATTTGGC (site CCTCATACTGC)” and “CCTCATACATGGACCGGTTTTCCCGGTAATCCGTATTTGGC (site CCTGATACTGC)” are the same in “recombinant UMI read abundance (log10)” value: 0 for the first, 0 for the second.

“CCTCATACATGGACCGGTTTTCCCGGTAATCCGTATTTGGC (site CCTTATACTGC)” and “CCTCTCTCATGGACCGGTTTTCCCGGTAATCCGTATTTGTA (site CATCTCTCTTA)” are within 0.2 log units of each other in “recombinant UMI read abundance (log10)” value: 0 for the first, 0.00925 for the second.

First: CCTCTCTCATGGACCGGTTTTCCCGGTAATCCGTATTTGTA (site CCTCTCTCTTA)
Second: CCTCTCTCATGGACCGGTTTTCCCGGTAATCCGTATTTGTA (site CGTCTCTCTTA)
The “recombinant UMI read abundance (log10)” value of the first is higher: 0.53 for the first, 0 for the second.

“CCTCTCTCATGGACCGGTTTTCCCGGTAATCCGTATTTGTA (site CTTCTCTCTTA)” and “CCTGACACATGGACCGGTTTTCCCGGTAATCCGTATTTGTC (site CCTGACACTGA)” are within 0.2 log units of each other in “recombinant UMI read abundance (log10)” value: 0.0036 for the first, 0 for the second.

“CCTGCAGCATGGACCGGTTTTCCCGGTAATCCGTATTTGTG (site CCTGCAGCTCA)” and “CCTGCCGCATGGACCGGTTTTCCCGGTAATCCGTATTTGCC (site CCTGCCGCTGG)” are within 0.2 log units of each other in “recombinant UMI read abundance (log10)” value: 0.0206 for the first, 0 for the second.

“CCTGGTCCATGGACCGGTTTTCCCGGTAATCCGTATTTGCA (site CCAGGTCCTTG)” and “CCTGGTCCATGGACCGGTTTTCCCGGTAATCCGTATTTGCA (site CCCGGTCCTTG)” are within 0.2 log units of each other in “recombinant UMI read abundance (log10)” value: 0 for the first, 0.00677 for the second.

“CCTGGTCCATGGACCGGTTTTCCCGGTAATCCGTATTTGCA (site CCGGGTCCTTG)” and “CCTGGTCCATGGACCGGTTTTCCCGGTAATCCGTATTTGCA (site CCTGGTCCTTG)” are the same in “recombinant UMI read abundance (log10)” value: 0 for the first, 0 for the second.

“CCTTAGGCATGGACCGGTTTTCCCGGTAATCCGTATTTGTT (site CCTTAGGCTAA)” and “CCTTATACATGGACCGGTTTTCCCGGTAATCCGTATTTGGC (site CCTAATACTGC)” are within 0.2 log units of each other in “recombinant UMI read abundance (log10)” value: 0.0132 for the first, 0 for the second.

“CCTTATACATGGACCGGTTTTCCCGGTAATCCGTATTTGGC (site CCTCATACTGC)” and “CCTTATACATGGACCGGTTTTCCCGGTAATCCGTATTTGGC (site CCTGATACTGC)” are within 0.2 log units of each other in “recombinant UMI read abundance (log10)” value: 0.021 for the first, 0 for the second.

“CCTTATACATGGACCGGTTTTCCCGGTAATCCGTATTTGGC (site CCTTATACTGC)” and “CCTTGAACATGGACCGGTTTTCCCGGTAATCCGTATTTGCT (site CCTTGAACTAG)” are the same in “recombinant UMI read abundance (log10)” value: 0 for the first, 0 for the second.

In the case of “CCTTGCCCATGGACCGGTTTTCCCGGTAATCCGTATTTGAT (site ACTTGCCCTAT)”, the “recombinant UMI read abundance (log10)” value is reported as 0.00442.
